Data published in patent publication US20080287486A1, “Prokinetic agent for bowel preparation” (Theravance, Inc., priority 2007, published 2008).

Test system: healthy subjects
Experiment: Measurement of onset of bowel movement in healthy subjects (stool diary card, rising single doses)
Type: in vivo, human
Details: for Mean Number of Bowel Movements / Median Time to First Bowel Movement: first 24 hour post dosing period; for Mean Number of Bowel Movements: standard deviation in parentheses; for Median Time to First Bowel Movement: gelatin capsules; for average Bristol score (stool consistency, 1 hard pellets to 7 liquid): placebo 3.2 (0.7)
Procedure: Subjects were monitored for safety and evidence of prokinetic effects using a stool diary card. Time and consistency (Bristol score) of each bowel movement were recorded.

SMILES: CC(C)n1c(=O)c(C(=O)N[C@H]2C[C@H]3CC[C@@H](C2)N3C[C@@H](O)CN(C)S(C)(=O)=O)cc2ccccc21.Cl [prokinetic agent, 1-isopropyl-2-oxo-1,2-dihydroquinoline-3-carboxylic acid {(1S,3R,5R)-8-[(R)-2-hydroxy-3-(methanesulfonyl-methyl-amino)propyl]-8-aza-bicyclo[3.2.1]oct-3-yl}amide hydrochloride]
- Mean Number of Bowel Movements (10 mg dose): 2.1 (1.2)
- Median Time to First Bowel Movement (10 mg dose): 1.6 h
- Mean Number of Bowel Movements (20 mg dose): 2.0 (1.5)
- Median Time to First Bowel Movement (20 mg dose): 1.0 h
- Mean Number of Bowel Movements (30 mg dose): 3.6 (2.4)
- Median Time to First Bowel Movement (30 mg dose): 1.1 h
- Mean Number of Bowel Movements (50 mg dose): 5.9 (3.9)
- Median Time to First Bowel Movement (50 mg dose): 1.1 h
- average Bristol score (stool consistency, 1 hard pellets to 7 liquid) (50 mg dose): 5.6 (0.9)
- Mean Number of Bowel Movements (70 mg dose): 6.0 (3.0)
- Median Time to First Bowel Movement (70 mg dose): 0.9 h
- average Bristol score (stool consistency, 1 hard pellets to 7 liquid) (plateau at 20-70 mg): 5.4-6.0
- time at which the effect dissipated post dosing (post dosing): 24 to 48 h
